Entries after “also recorded” stand apart in the source; their conditions may differ. Where a SMILES comes first, the peptide text is derived from it. Where no end group is shown, it is not given here. The star is where a group is joined. Cbz = O=C(OCc1ccccc1)*; CH2F = FC*

Data set [1] deals with cell membrane. Kind of data set: Cell membrane permeability and retention of peptides in cells (description). In kind it is cell-based. The settings on record: for cell membrane permeability: need of a cell delivery system.
Data set [2] relates to platelet number in mouse peripheral blood. Nature of the data set: Platelet number in mouse peripheral blood after Etoposide. In kind it is in vivo, C57BL/6J mice. Conditions: Etoposide 150 mg/kg i.p., for 48 hrs. The procedure: Percentage of platelets in C57BL/6J mice compared to before treatment (100%). […] The statistical significance was determine by an unpaired student t test, *P<0.05, **P<0.01, ***, P<0.001.
Mouse blood (50-100 micro 1) was collected by heparin-coated capillary tube from tail, and the samples were incubated at room temperature for 1 hr before blood cell analysis using HEMA VET blood cell counter (Drew Scientific Inc. Oxford, Conn.). Each blood sample was measured twice, and the mean value of two measurements was used as one sample data (n=1).

Data set [3] concerns the target T1, interaction of Ku70 and Bax (Homo sapiens, UniProt Q07812).
T1 construct: lysates prepared from human cultured cells (HeLa cells and human kidney epithelial 293 cells); endogenous in cells; host or cells: HeLa cells; human kidney epithelial 293 cells
Kind of data set: Inhibition of the interaction of Ku70 and Bax in cell lysates. In kind it is binding. The settings on record: negative controls; lysates from human cultured cells. The procedure:
The Bax-binding domain in Ku70 comprises 6 amino acids (VPMLKE, SEQ ID NO: 1). This peptide (Ku70 Peptide) inhibits the interaction of Ku70 and Bax at the concentration of 20-80 μM in lysates prepared from human cultured cells (HeLa cells and human kidney epithelial 293 cells).

A short description of data set [4]: Preliminary toxicity study in mice. In kind it is in vivo. Conditions: 166.5 mg/kg i.p. and 16.5 mg/kg i.v.t. The procedure:
Importantly, we also obtained a preliminary result showing that BIP pre-treatment attenuated Etoposide-induced platelet decrease in mouse model. To develop the technology protecting megakaryocytes from chemotherapy, further extensive animal studies are needed. […] We examined doses of 166.5 mg/kg by i.p. and 16.5 mg/kg by i.v.t. […] The dose of 166.5 mg/kg is expected to achieve 300 μM of BIP in whole mouse body, if a mouse body is assumed to be filled with water. Probably, much less amount of BIP is sufficient to achieve effective doses (50-400 μM) (Sawada, M., P. Hayes, and S. Matsuyama, Cytoprotective membrane-permeable peptides designed from the Bax-binding domain of Ku70. Nat Cell Biol, 2003. 5(4): p. 352-7; Yoshida, T., et al., Bax-inhibiting peptide derived from mouse and rat Ku70. Biochem Biophys Res Commun, 2004. 321(4): p. 961-6; Yu, L. Y., et al., GDNF-deprived sympathetic neurons die via a novel nonmitochondrial pathway. J Cell Biol, 2003. 163(5): p. 987-97; Qin, Q., K. Patil, and S. C. Sharma, The role of Bax-inhibiting peptide in retinal ganglion cell apoptosis after optic nerve transection. Neurosci Lett, 2004. 372(1-2): p. 17-21) in blood or a specific tissue.

In data set [5] the test system is primary cultured mouse megakaryocytes. Kind of data set: Platelet formation in vitro (Integrin αIIB positive platelet like particles, flow cytometry). In kind it is cell-based. The settings on record: 48 h; VPTLK 200 μM; Z-VAD-fmk 200 and 400 μM; FIG. 5B. As to the method:
After the pre-incubation with the peptides, 1 mM EDTA and 50 ng/ml prostaglandin E1 (Sigma) dissolved in ethanol were added to the cell culture before the centrifugation (700 g) at room temperature (RT) for 10 min. The platelets were washed with 300 μl of tyrodes buffer (pH 7.4) containing 2.5 mg/ml BSA and 1 mg/ml glucose. Then 2 μl of anti CD16/anti CD32 (BD Phaminogen™) was added to the platelets. The platelets were incubated at RT for 10 min. The platelets were divided into 3 sets, and 2 μl of rat IgG1 κ phycoerythrin (PE) labeled isotype control (Pharmingen) was added to one sample, and 2 μl of PE labeled antibody of intregin αIIB PE (Santa Cruz) was added to the other two samples. The platelets were incubated at RT for 30 min. Finally, 5 μl of Flow-Count™ Fluorospheres (Beackman-Coulter™) was added to the sample as platelet size marker. The platelets were detected with a FACScan flow cytometer system (Becton Dickinson; BD LSRII) using cellquest software. Each point in the figures showing percent apoptosis represents the mean±SEM of three experiments.

T1 sequence (Q07812 whole entry): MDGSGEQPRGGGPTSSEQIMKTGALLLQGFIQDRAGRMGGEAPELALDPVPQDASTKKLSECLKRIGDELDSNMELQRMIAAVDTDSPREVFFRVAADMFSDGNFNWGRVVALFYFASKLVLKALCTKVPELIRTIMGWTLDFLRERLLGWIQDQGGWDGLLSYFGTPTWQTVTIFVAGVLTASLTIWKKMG

Turning to VPALR [VPALR], the cell membrane permeability result in data set [1] is “cell membrane permeable”.

As for `COc1cc([C@@H]2c3cc4c(cc3[C@@H](O[C@@H]3O[C@@H]5CO[C@@H](C)O[C@H]5[C@H](O)[C@H]3O)[C@H]3COC(=O)[C@H]23)OCO4)cc(OC)c1O` [Etoposide], the “platelet count in the peripheral blood after Etoposide alone” value in data set [2] is reported as “slight decrease of platelet count”.

As for “Ku70 Peptide NC: the immediate next six amino acid sequence of Ku70, negative control (LGKFTV; UniProt P12956 573-578, looked up, fragment)”, the “effect on the interaction of Ku70 and Bax” value in data set [3] is “did not affect the interaction of Ku70 and Bax”.

In the case of VPTLK [VPTLK], in data set [4], the “survival after the injection” value was “more than 3 months”. The toxicity in mice entry in data set [4] (preliminary study, listed as BIP) is given as “did not show any toxicity; also recorded: did not show any sign of illness”.

For the compound PMLKE [PMLKE], in data set [1], the cell membrane permeability entry is recorded as “cell membrane permeable”.

With VPMLK [VPMLK], the cell membrane permeability entry in data set [1] is on record as “cell membrane permeable”.

Take `CSCC[C@H](NC(=O)[C@@H]1CCCN1)C(=O)N[C@@H](CC(C)C)C(=O)N[C@@H](CCCCN)C(=O)O` [PMLK] (H-PMLK-OH; N-terminus and C-terminus assumed): in data set [1], the “retention in the cell” value is reported as “not retained in the cell” and the cell membrane permeability result is given as “cell membrane permeable”.

Regarding `COC(=O)CC(NC(=O)C(C)NC(=O)C(NC(=O)OCc1ccccc1)C(C)C)C(=O)CF` (stereo not drawn) [Z-VAD-fmk, Benzyloxycarbonyl-Val-Ala-Asp (OMe) fluoromethylketone] (Cbz-Val-Ala-Asp(OMe)-CH2F; configuration not given here), in data set [5], the “platelet like particles formation” value was “slightly decreased platelet like particles formation”.

On to VPMLKE [VPMLKE], for which, in data set [1], the cell membrane permeability result was “a cell delivery system, such as liposomes as in the case of VPMLKE”.
